Where a name gives a salt, the structure may show the parent alone.
Columns and labels:
LN443 = details: GBM cell line LN443; adapted from reference [13]; cited from earlier work
A172 [1] = details: GBM cell line A172; adapted from reference [13]; cited from earlier work
U118 = details: GBM cell line U118; adapted from reference [13]; cited from earlier work
U87 [2] = details: GBM cell line U87; adapted from reference [13]; cited from earlier work
HEK293S = experiment: Cell proliferation assay (CCK8), fixed concentration, control cell line; format: cell-based; details: fixed test concentration per compound, Table 1 log[M]: Trequinsin −4.6, Fucoxanthin −4.8, PF04449613 −4, PF02545920 −4.6, TIC10 −5, PF04691502 −6.6, GSK1059615 −5.5, LY294002 −5, Axitinib −5, Temozolomide −5
Description: (§1) A wide range of approved and exploratory drugs are profiled for their ability to inhibit GBM cell proliferation. Their EC50 values against each separate cell line in the set are determined. […] Screening is performed in 96-well or 384-well or 1536-well formats.
(§2) Data was obtained from testing these compounds at fixed concentrations against normal control cells (HEK293S) alongside reference GBM cells (U87 and A172), to obtain a dataset (Table 1) within which to compare the pharmacological and pharmaceutical properties of compounds across a chosen chemotyping panel.
(§3) Data Obtained from Screening Compounds within a Chemotyping Panel Against a Control Cell Line (HEK293S) and Two Reference GBM Cell Lines (U87 and A172)

A172 [3] = experiment: Cell proliferation assay (CCK8), fixed concentration, reference GBM cell line A172; format: cell-based, human; details: fixed test concentration per compound, Table 1 log[M]: Trequinsin −4.6, Fucoxanthin −4.8, PF04449613 −4, PF02545920 −4.6, TIC10 −5, PF04691502 −6.6, GSK1059615 −5.5, LY294002 −5, Axitinib −5, Temozolomide −5
Description: as §1, §2, §3

U87 [4] = experiment: Cell proliferation assay (CCK8), fixed concentration, reference GBM cell line U87; format: cell-based, human; details: fixed test concentration per compound, Table 1 log[M]: Trequinsin −4.6, Fucoxanthin −4.8, PF04449613 −4, PF02545920 −4.6, TIC10 −5, PF04691502 −6.6, GSK1059615 −5.5, LY294002 −5, Axitinib −5, Temozolomide −5
Description: as §1, §2, §3

Compound	EC50 (LN443)	EC50 (A172 [1])	EC50 (U118)	EC50 (U87 [2])	% Inhibiton HEK293 (HEK293S)	% Proliferation HEK293 (HEK293S)	% Inhibiton A172 (A172 [3])	% Proliferation A172 (A172 [3])	% Inhibiton U87 (U87 [4])	% Proliferation U87 (U87 [4])
CC(C)/N=c1\cc2n(-c3ccc(Cl)cc3)c3ccccc3nc-2cc1Nc1ccc(Cl)cc1 [Clofaximine]	20100 nM	11900 nM	19700 nM	8610 nM	–	–	–	–	–	–
COc1cc2c(cc1OC)-c1c/c(=N\c3c(C)cc(C)cc3C)n(C)c(=O)n1CC2 [Trequinsin]	–	–	–	–	59%	41%	37%	63%	11%	89%
O=c1cc(N2CCOCC2)oc2c(-c3ccccc3)cccc12 [LY294002]	–	–	–	–	2%	98%	42%	58%	−17%	117%
Dactinmycin	19.6 nM	99.3 nM	56.8 nM	437 nM	–	–	–	–	–	–
COc1cccc2c1C(=O)c1c(O)c3c(c(O)c1C2=O)C[C@@](O)(C(=O)CO)C[C@@H]3O[C@H]1C[C@H](N)[C@@H](O)[C@H](C)O1 [Epirubicin]	41.2 nM	62.2 nM	46.9 nM	59.3 nM	–	–	–	–	–	–
Cn1cc(-c2ccncc2)c(-c2ccc(OCc3ccc4ccccc4n3)cc2)n1 [PF02545920]	–	–	–	–	84%	16%	80%	20%	30%	70%
C[C@H](c1nc2c(cnn2C2CCOCC2)c(=O)[nH]1)N1CC(Oc2ccccc2)C1 [PF04449613]	–	–	–	–	10%	90%	61%	39%	−14%	114%
CC[C@@]1(O)C(=O)OCc2c1cc1n(c2=O)Cc2cc3c(CN(C)C)c(O)ccc3nc2-1 [Topetecan]	136 nM	649 nM	184 nM	167 nM	–	–	–	–	–	–
CC[C@]1(O)C[C@H]2CN(CCc3c([nH]c4ccccc34)[C@@](C(=O)OC)(c3cc4c(cc3OC)N(C=O)[C@H]3[C@@](O)(C(=O)OC)[C@H](OC(C)=O)[C@]5(CC)C=CCN6CC[C@]43[C@@H]65)C2)C1 [Vincrinstine]	873 nM	42 nM	1190 nM	1320 nM	–	–	–	–	–	–
COc1ccc(-c2cc3c(C)nc(N)nc3n([C@H]3CC[C@H](OCCO)CC3)c2=O)cn1 [PF04691502]	–	–	–	–	45%	55%	44%	56%	35%	65%
CC(C)[C@]12O[C@H]1[C@@H]1O[C@]13[C@]1(O[C@H]1C[C@H]1C4=C(CC[C@@]13C)C(=O)OC4)[C@@H]2O [Triptolide]	30.8 nM	8.33 nM	10.1 nM	6.53 nM	–	–	–	–	–	–
Nc1ncnc2c1ncn2[C@H]1C[C@H](O)[C@@H](CO)O1 [Deoxyadenosine]	–	1770 nM	590 nM	2110 nM	–	–	–	–	–	–
COc1cccc2c1C(=O)c1c(O)c3c(c(O)c1C2=O)C[C@@](O)(C(=O)CO)C[C@@H]3O[C@H]1C[C@H](N)[C@H](O)[C@H](C)O1 [Docorubicine]	62.9 nM	48.8 nM	41.1 nM	55.1 nM	–	–	–	–	–	–
CC[C@]1(O)C[C@@H]2CN(CCc3c([nH]c4ccccc34)[C@@](C(=O)OC)(c3cc4c(cc3OC)N(C)[C@H]3[C@@](O)(C(N)=O)[C@H](O)[C@]5(CC)C=CCN6CC[C@]43[C@@H]65)C2)C1 [Vindesine sulfate]	495 nM	23.2 nM	670 nM	414 nM	–	–	–	–	–	–
COC(=O)C[C@](O)(CCCC(C)(C)O)C(=O)O[C@@H]1C(OC)=C[C@]23CCCN2CCc2cc4c(cc2[C@H]13)OCO4 [Homoharringtonin]	28.9 nM	–	1140 nM	22 nM	–	–	–	–	–	–
Cn1nnc2c(C(N)=O)ncn2c1=O [Temozolomide]	–	–	–	–	0%	100%	13%	87%	5%	95%
COCc1c(C(C)C)nc(C(C)C)c(/C=C/[C@@H](O)C[C@@H](O)CC(=O)O)c1-c1ccc(F)cc1 [Cericastatin]	24 nM	31.7 nM	741 nM	668 nM	–	–	–	–	–	–
CCc1c2c(nc3ccc(OC(=O)N4CCC(N5CCCCC5)CC4)cc13)-c1cc3c(c(=O)n1C2)COC(=O)[C@]3(O)CC [Irinitecan]	4010 nM	7970 nM	4600 nM	8030 nM	–	–	–	–	–	–
Cc1ccccc1CN1C(=O)C2=C(CCN(Cc3ccccc3)C2)N2CCN=C12 [TIC10]	–	–	–	–	83%	17%	68%	32%	27%	73%
O=C(O)C[C@H](O)C[C@H](O)/C=C/c1c(C2CC2)nc2ccccc2c1-c1ccc(F)cc1 [Pitavastatin]	83 nM	274 nM	1920 nM	3520 nM	–	–	–	–	–	–
Fucoxanthin	–	–	–	–	76%	24%	66%	34%	26%	74%
O=C1NC(=O)/C(=C/c2ccc3nccc(-c4ccncc4)c3c2)S1 [GSK1059615]	–	–	–	–	79%	21%	74%	26%	57%	43%
